Read-outs that look alike come from different tables or passages of the source.
How the values were obtained:
[1] = biological target: T1, tau construct K19 (Homo sapiens, UniProt P10636); assay: Thioflavine S assay, inhibition of PHF formation, K19; assay type: biochemical; settings: ThS fluorescence, 10 μM K19, heparin; read-out: Inhibition of tau aggregation IC50, K19
T1 construct: construct K19 containing three repeats; made in house; host or cells: E. coli
Description: (§1) Assembly of synthetic PHFs of tau protein (K19, 10 μM) was performed at 37° C. in the presence of polyanions (heparin; 5 μM) in 50 mM NH4Ac, pH 6.8. Assembly was followed either qualitatively by electron microscopy or quantitatively by fluorescence assay using thioflavine S. PHF-formation of tau isoforms htau23 and htau24 was carried out in PBS-buffer pH 7.4, 50 μM protein, and 12.5 μM heparin. The samples were incubated at 50° C. for 10 days. In the case of htau24 and K18, DTT was added at a final concentration of 1 mM each day in order to avoid intra-molecular disulfide crosslinking (Barghorn et al., 2000).
(§2) PHF formation was monitored by a thioflavine S fluorescence assay (Friedhoff et al., 1998a) adapted to a 384 well format. 60 μM of each substance was tested for its inhibitory effect on PHF formation. Using an automated pipetting system (Cybi-Well, CyBio, Jena, Germany) 50 mM NH4AC, 10 μM protein (K19), 60 μM compound and 5 μM heparin were mixed in 50 μl volume in a 384 well plate (black microtiter 384 plate round well, ThermoLabsystems, Dreiich, Germany) and incubated overnight at 37° C. As a control the protein was replaced with H2O to measure the possible fluorescence of the compounds. As a second control the reaction mixture without compound was treated in the same way.
(§3) After incubation with the compounds thioflavine S was added to the buffer to a final concentration of 20 μM and the signal was measured at excitation at 440 nm and emission at 521 nm in a spectrofluorimeter (Ascent; Labsystems, Frankfurt).
Inhibitory effects begun to appear at concentrations around 0.1 μM (ratio of protein to compound=100), and reached nearly complete inhibition at 100 μM compound concentration (ratio protein/compound=0.1). Overall, the curves of FIG. 2A decay fairly steeply over a compound concentration range of 2-3 orders of magnitude.
(A) extent of aggregation of tau construct K19 (10 μM) plotted vs. inhibitor concentration (range 1 fM-60 μM). The extent of aggregation was measured by the thioflavin S fluorescence assay and the degree of inhibition was plotted as percentage of control. All measurements were performed in triplicates.

[2] = biological target: T2, four repeat construct K18 (Homo sapiens, UniProt P10636); assay: Thioflavine S assay, inhibition of PHF formation, K18; assay type: biochemical
T2 construct: made in house; host or cells: E. coli
Description: as §1, §2, §3
The four repeat construct K18 was tested under the same conditions (FIG. 2B). […] However, the decay of the curves of K18 is more gradual than those of K19, extending over 3-4 orders of magnitude of compound concentration (compare FIG. 2A).

[3] = biological target: T3, htau24 (Homo sapiens, UniProt P10636); assay: Thioflavine S assay, inhibition of PHF formation, htau24; assay type: biochemical; settings: for IC50: ThS fluorescence, read-out: Inhibition of tau aggregation IC50, hTau24; for effect on PHF formation, htau24: compared to htau23; for inhibition at 60 µM: read-out: inhibition of PHF formation, htau24
T3 construct: made in house; host or cells: E. coli
Description: as §1

[4] = test system: PHFs from K18/ΔK280; assay: Thioflavine S assay, depolymerisation of pre-formed PHFs, K18/ΔK280 without heparin; assay type: biochemical, human; settings: ThS fluorescence, PHFs made without heparin
Description: (§4) The ThS assay was used to analyse the ability of the five compounds (see Example 4) to depolymerise pre-formed PHFs made from the repeat domain constructs K19 and K18 as well as from isoforms htau23 and htau24, containing 3 or 4 repeats, respectively.
The higher DC50 values for K18/ΔK280 point to the higher stability of PHFs formed by this mutant.
(§5) Tau constructs and isoforms K19, K18, hTau23, hTau24 (10 μM) were first aggregated into PHFs for 48 hours in the presence of 2.5 μM heparin (except K18/ΔK280) and the polymers separated from the soluble tau by centrifugation of 1 h at 100,000 g, redissolved and then exposed to the inhibitors overnight at 37° C. at the indicated concentrations (range 0.001-200 μM). The compounds are capable of disassembling PHFs with varying efficiencies (see Table 2).

[5] = biological target: T4, PHFs from htau23 (Homo sapiens, UniProt P10636); assay: Thioflavine S assay, depolymerisation of pre-formed PHFs, htau23; assay type: biochemical
T4 construct: made in house; host or cells: E. coli
Description: as §4
PHFs assembled from the full length three repeat isoform htau23 were also sensitive to disaggregation (FIG. 4C). The DC50 values ranged from 7.0 to 60 μM.
as §5, with “μM).” for “μM). The compounds are capable of disassembling PHFs with varying efficiencies (see Table 2).”

[6] = biological target: T5, Aβ1-40 peptide (Homo sapiens, UniProt P05067); assay: Aβ fibre aggregation inhibition (thioflavine T); assay type: biochemical; settings: 60 μM compound
T5 construct: Commercial human Aβ1-40 was obtained from Calbiochem; purchased Calbiochem
Description: Besides the activity of the compounds towards tau fibres, their specificity is an important issue, i.e. the ability to discriminate between different types of aggregates. Therefore, an analysis of the influence of the compounds (60 μM) on amyloid fibrils made from the Aβ1-40 peptide, both in terms of inhibition of de novo filament formation and depolymerisation was performed (FIGS. 8A-B). These fibres are also abundant in Alzheimer brain and contain a core of cross-β-structure, but are located outside the cells, in contrast to the intracellular PHFs.
Commercial human Aβ1-40 was obtained from Calbiochem (Schwalbach, Germany) and stored at −20° C. The AD peptide was routinely dissolved in 100% DMSO to obtain a 2 mM stock solution, which was subsequently stored frozen at −20° C. 5 μl from the 2 mM Aβ stock solution was added to 90 μl of 25 mM phosphate buffer containing 120 mM NaCl, and 0.02% sodium azide, final pH 7.4 and 5 μl of 100% DMSO so that the final DMSO concentration was 10% v/v, and the protein concentration was adjusted to 100 μM. Incubations were at room temperature. In order to accelerate aggregation tubes were put on a lab shaker and agitated at moderate speed. For analysis 5 μl of this solution were added to 45 μl 10 mM phosphate buffer containing 6 μM thioflavine T, pH 6.0, after 30 minutes incubation at room temperature the fluorescence was measured at 504 nm emission by an excitation of 409 nm. To correlate fibril morphology with the fluorescence signal, aliquots of the Aβ1-40 solutions were simultaneously prepared for electron microscopy. The inhibition of fibril formation and disassembly of pre-formed Aβ-fibrils were carried out in triplicates with 60 μM compound and 10 μM protein.
Aβ peptide 1-40 (10 μM) was incubated with moderate shaking overnight at room temperature and incubated with various compounds (60 μM) overnight.

[7] = ThS fluorescence, K18, heparin, read-out: Inhibition of tau aggregation IC50, K18
[8] = ThS fluorescence, read-out: Depolymerisation of PHFs DC50, hTau23

T2 sequence (P10636 561-685 limits assumed): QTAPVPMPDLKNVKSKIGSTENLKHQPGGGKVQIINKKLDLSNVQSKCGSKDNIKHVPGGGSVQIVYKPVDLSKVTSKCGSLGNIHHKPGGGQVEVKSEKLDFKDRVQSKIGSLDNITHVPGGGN
T1 sequence (P10636 with tags, fused parts or gaps isoform P10636-2 limits assumed): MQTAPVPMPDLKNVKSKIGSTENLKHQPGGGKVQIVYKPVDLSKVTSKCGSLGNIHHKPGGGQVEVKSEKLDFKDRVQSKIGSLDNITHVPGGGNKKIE
T4 sequence (P10636 1-352 isoform P10636-2): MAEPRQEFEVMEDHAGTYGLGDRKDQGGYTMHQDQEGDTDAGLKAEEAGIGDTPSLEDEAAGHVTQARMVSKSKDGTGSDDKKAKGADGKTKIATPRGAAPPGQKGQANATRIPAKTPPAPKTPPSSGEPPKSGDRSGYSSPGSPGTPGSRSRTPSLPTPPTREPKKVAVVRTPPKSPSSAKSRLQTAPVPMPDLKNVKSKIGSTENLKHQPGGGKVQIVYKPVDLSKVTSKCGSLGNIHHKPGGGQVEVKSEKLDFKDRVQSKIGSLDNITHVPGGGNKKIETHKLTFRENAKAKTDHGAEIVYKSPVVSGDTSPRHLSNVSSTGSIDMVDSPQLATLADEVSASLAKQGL
T5 sequence (P05067 672-711): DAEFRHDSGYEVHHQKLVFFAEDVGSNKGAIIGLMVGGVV
T3 sequence (P10636 1-383 isoform P10636-6): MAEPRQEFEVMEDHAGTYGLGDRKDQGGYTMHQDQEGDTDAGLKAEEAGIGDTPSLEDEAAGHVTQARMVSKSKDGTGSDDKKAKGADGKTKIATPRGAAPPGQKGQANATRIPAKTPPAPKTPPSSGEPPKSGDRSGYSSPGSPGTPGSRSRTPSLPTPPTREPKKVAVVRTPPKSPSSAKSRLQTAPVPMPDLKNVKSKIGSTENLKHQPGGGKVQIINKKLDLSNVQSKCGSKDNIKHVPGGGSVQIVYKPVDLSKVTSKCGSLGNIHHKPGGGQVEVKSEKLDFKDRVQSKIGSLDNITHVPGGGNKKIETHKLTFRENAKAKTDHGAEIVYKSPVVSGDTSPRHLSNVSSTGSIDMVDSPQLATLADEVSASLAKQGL

SMILES | IC50 [1] [µM] | IC50 [2, 7] [µM] | IC50 [3] [µM] | effect on PHF formation, htau24 [3] | DC50 [4] [µM] | Depolymerisation of PHFs DC50, K18/ΔK280 [4] | DC50 [5, 8] [µM] | inhibition at 60 µM ([6]; 10 μM Aβ1-40, read-out: inhibition of Aβ filament formation) [%] | inhibition of Aβ fibre aggregation [6] | inhibition at 60 µM [3] [%] | inhibition at 60 µM ([3]; 60 μM compound) [%] | IC50 [2] [µM] | DC50 ([5]; read-out: Depolymerisation of PHFs DC50, hTau23, ThS fluorescence) [µM]
O=C(c1ccccc1)c1ccc(O)c(O)c1O [PHF005, 1-Phenyl-1-(2,3,4-trihydroxy-phenyl)-methanone] | 6 | 2.7 | > 100 | only a small effect | > 100 | not accurately detectable | > 60 | ~50 | – | – | – | – | –
O=C1c2ccc(O)c(O)c2C(=O)c2c(O)ccc(O)c21 [PHF016, 1,2,5,8-Tetrahydroxy-anthraquinone] | 6.8 | 0.6 | > 60 | only a small effect | > 60 | not accurately detectable | > 60 | – | most efficient | – | – | – | –
COc1cccc2c1C(=O)c1c(O)c3c(c(O)c1C2=O)CC(O)(C(C)=O)CC3OC1CC(N)C(O)C(C)O1 (centres unmarked) [Daunorubicin, 8-Acetyl-10-(4-amino-5-hydroxy-6-methyl-tetrahydro-pyran-2-yloxy)-6,8,11-trihydroxy-1-methoxy-7,8,9,10-tetrahydro-naphthacene-5,12-dione, reference compound] | 1 | 0.3 | 3.4 | – | 7.7 | – | 8.2 | – | most efficient | 70 to 90 | – | – | –
Cc1cc(O)c2c(c1)C(=O)c1cc(O)cc(O)c1C2=O [Emodin, 1,3,8-Trihydroxy-6-methyl-anthraquinone] | 2.4 | 0.3 | 1.8 | – | 2.7 | – | 7 | – | most efficient | – | 70 to 90 | – | –
COc1cccc2c1C(=O)c1c(O)c3c(c(O)c1C2=O)CC(O)(C(=O)CO)CC3OC1CC(N)C(O)C(C)O1 (centres unmarked) [Adriamycin, 10-(4-Amino-5-hydroxy-6-methyl-tetrahydro-pyran-2-yloxy)-6,8,11-trihydroxy-8-(2-hydroxyethanoyl)-1-methoxy-7,8,9,10-tetrahydro-naphthacene-5,12-dione, reference compound] | 17.6 | – | 2.7 | – | 22 | – | – | – | – | – | – | 0.1 | 13.2
